Experimental data as given in ChEMBL document CHEMBL1201862, “PubChem BioAssay data set” (2004).
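Compound exposure: 48 hours, 5 concentrations, 96-well plates. Abbreviation: GI50, concentration required for 50% inhibition of growth.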 Calls of active or inactive are those of the source. No stated cut-off is given here; in the data, active = GI50 up to about 1.1 µM and inactive = higher.

How the values were obtained:
Experiment in all cases: DTP human tumour cell line panel, 48 h
[1] = test system: OVCAR-4
[2] = test system: SK-MEL-5
[3] = test system: SK-MEL-28
[4] = test system: A549
[5] = test system: SF-539
[6] = test system: SN12C
[7] = test system: HOP-92
[8] = test system: IGROV-1
[9] = test system: OVCAR-3
[10] = test system: NCI-H23
[11] = test system: Malme-3M
[12] = test system: DU-145
[13] = test system: MOLT-4
[14] = test system: EKVX
[15] = test system: RPMI-8226
[16] = test system: SNB-75
[17] = test system: A498
[18] = test system: SR

SMILES | GI50 [1] | GI50 [2] | GI50 [3] | GI50 [4] | GI50 [5] | GI50 [6] | GI50 [7] | GI50 [8] | GI50 [9] | GI50 [10] | GI50 [11] | GI50 [12] | GI50 [13] | GI50 [14] | GI50 [15] | GI50 [16] | GI50 [17] | GI50 [18]
NS(=O)(=O)c1nnc(NC(=O)N(c2ccccc2)c2ccccc2)s1 | 27.9 µM (inactive) | 22.7 µM (inactive) | 39 µM (inactive) | 26.3 µM (inactive) | 17.6 µM (inactive) | 15.8 µM (inactive) | 19.1 µM (inactive) | 17.7 µM (inactive) | 19.5 µM (inactive) | 19.1 µM (inactive) | 21.2 µM (inactive) | 14.2 µM (inactive) | 21.1 µM (inactive) | 24.8 µM (inactive) | 17 µM (inactive) | 18.5 µM (inactive) |  | 
COc1ccc(OC)c2c1CC(C(=O)O)(C(=O)O)CC2=O | > 100 µM (inactive) | > 100 µM (inactive) | > 100 µM (inactive) | > 100 µM (inactive) |  | > 100 µM (inactive) | > 100 µM (inactive) | > 100 µM (inactive) | > 100 µM (inactive) | > 100 µM (inactive) | > 100 µM (inactive) |  | > 100 µM (inactive) | > 100 µM (inactive) |  | > 100 µM (inactive) |  | 
O=C(c1ccccc1)c1ccc2cccc(OC3OC(CO)C(O)C(O)C3O)c2n1 (configuration not stated) | > 100 µM (inactive) | > 100 µM (inactive) | > 100 µM (inactive) | > 100 µM (inactive) | > 100 µM (inactive) | > 100 µM (inactive) |  | > 100 µM (inactive) | 45.2 µM (inactive) | > 100 µM (inactive) | > 100 µM (inactive) |  | > 100 µM (inactive) | > 100 µM (inactive) | > 100 µM (inactive) | 68.4 µM (inactive) | 26.8 µM (inactive) | > 100 µM (inactive)
O[C@@H]1C[C@H]2N3CC[C@@]2(c2cc4c(cc2C3)OCO4)[C@H]2O[C@@H]12 | > 100 µM (inactive) | < 0.01 µM (active) | > 100 µM (inactive) | > 100 µM (inactive) | 0.0178 µM (active) | > 100 µM (inactive) | > 100 µM (inactive) | > 100 µM (inactive) | > 100 µM (inactive) | > 100 µM (inactive) | > 100 µM (inactive) | > 100 µM (inactive) | > 100 µM (inactive) | > 100 µM (inactive) | > 100 µM (inactive) | > 100 µM (inactive) | > 100 µM (inactive) | 
C[C@H](NC(=O)OC1C2C=CC(O)C1CC2)c1ccccc1 (some centres not stated) | > 100 µM (inactive) | > 100 µM (inactive) | > 100 µM (inactive) | > 100 µM (inactive) | > 100 µM (inactive) | > 100 µM (inactive) |  | > 100 µM (inactive) | > 100 µM (inactive) | > 100 µM (inactive) | > 100 µM (inactive) |  | > 100 µM (inactive) | > 100 µM (inactive) | 22.4 µM (inactive) | > 100 µM (inactive) | > 100 µM (inactive) | 21.4 µM (inactive)
C[C@@H]1CC2(C[C@@H](C)C3[C@@H](CC4(C)CCCC5C6=CC(O)(CC[C@]34C)OC6=CC(=O)OC5(C)C)O2)OC1=O (some centres not stated) | > 100 µM (inactive) | > 100 µM (inactive) | > 100 µM (inactive) | > 100 µM (inactive) | > 100 µM (inactive) | > 100 µM (inactive) | > 100 µM (inactive) | > 100 µM (inactive) | > 100 µM (inactive) | > 100 µM (inactive) | > 100 µM (inactive) |  | > 100 µM (inactive) |  | > 100 µM (inactive) | 96.2 µM (inactive) |  | > 100 µM (inactive)
Cc1ccc(-c2cs/c(=N\c3c(C)n(C)n(-c4ccccc4)c3=O)n2CCO)cc1 | > 100 µM (inactive) |  | > 100 µM (inactive) | > 100 µM (inactive) | > 100 µM (inactive) | > 100 µM (inactive) | > 100 µM (inactive) |  | > 100 µM (inactive) | 50.8 µM (inactive) |  |  | 87.5 µM (inactive) | 84.7 µM (inactive) | > 100 µM (inactive) | > 100 µM (inactive) | 70 µM (inactive) | > 100 µM (inactive)
